Among the test systems are CAKI-1; MCF7; RPMI-8226; OVCAR-8; MDA-MB-435; MDA-N; BT-549; RXF 393; NCI/ADR-RES; KM12; SR; SF-268; UACC-62; NCI-H460; SK-MEL-2; OVCAR-3; SK-MEL-28; LOX IMVI; HOP-92.
Experiment in all cases: DTP human tumour cell line panel, 48 h

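All cell lines were grown in 96-well plates and treated with compound for 48 hours. GI50: concentration for 50% inhibition of growth.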 Activity calls are given as the source filed them. Cut-off read from the data, not from the text of the source: active = GI50 up to about 1.1 µM and inactive = higher.

For orientation: GI50 means the concentration that inhibits growth by half. For `COc1ccc(OC)c(-c2nc(O)c3ccccc3n2)c1`, the GI50 with CAKI-1 is > 100 µM (inactive); in the test with MCF7, > 100 µM (inactive); in the test on RPMI-8226, 78.3 µM (inactive); in the test on OVCAR-8, > 100 µM (inactive); in the test on MDA-MB-435, > 100 µM (inactive); in the test on MDA-N, > 100 µM (inactive). The GI50 was > 100 µM (inactive) in the test with BT-549; 15 µM (inactive) in the test on RXF 393; 98.4 µM (inactive) in the test on NCI/ADR-RES; 42.4 µM (inactive) in the test on KM12; 67 µM (inactive) with SR; > 100 µM (inactive) in the test on SF-268. Besides, the GI50 in the test with UACC-62 was 66.8 µM (inactive); with NCI-H460, > 100 µM (inactive); in the test on SK-MEL-2, > 100 µM (inactive); in the test with OVCAR-3, > 100 µM (inactive).
As for `O=C1C=C(N2CCN(CCOCCO)CC2)C(=O)c2c(O)ccc(O)c21`, the GI50 in the test on CAKI-1 was 15.7 µM (inactive); in the test on MCF7 it was 1.42 µM (inactive); in the test with RPMI-8226, 4.44 µM (inactive); in the test with SK-MEL-28, 17.1 µM (inactive); with OVCAR-8, 3.44 µM (inactive); in the test on MDA-MB-435 it was 1.82 µM (inactive). The GI50 is 1.84 µM (inactive) in the test with MDA-N; 1.92 µM (inactive) with LOX IMVI; 11.9 µM (inactive) in the test on BT-549; 13.2 µM (inactive) with RXF 393; 2.94 µM (inactive) in the test on NCI/ADR-RES; 12 µM (inactive) in the test on KM12. Further, the GI50 in the test on SF-268 was 17.3 µM (inactive); with UACC-62, 1.82 µM (inactive); in the test with NCI-H460, 2.92 µM (inactive); with HOP-92 it was 7.89 µM (inactive); in the test with SK-MEL-2, 6.97 µM (inactive); in the test on OVCAR-3, 1.82 µM (inactive).
`Cc1ccc(I)cc1N=C=S`: the GI50 is 24.9 µM (inactive) in the test with CAKI-1; 21.2 µM (inactive) in the test with MCF7; 20.8 µM (inactive) in the test on RPMI-8226; 20.2 µM (inactive) in the test with SK-MEL-28; 38.4 µM (inactive) in the test with OVCAR-8; 23.1 µM (inactive) in the test on MDA-MB-435. Besides, the GI50 is 27.9 µM (inactive) in the test on MDA-N; 22.2 µM (inactive) in the test on LOX IMVI; 13.3 µM (inactive) with BT-549; 20.2 µM (inactive) in the test on RXF 393; 25.9 µM (inactive) in the test with NCI/ADR-RES; 17.3 µM (inactive) with KM12. The GI50 with SF-268 is 27.6 µM (inactive); in the test on UACC-62, 17.3 µM (inactive); in the test on NCI-H460 it was 23.5 µM (inactive); with HOP-92 it was 43.4 µM (inactive); with SK-MEL-2, 17.8 µM (inactive); in the test with OVCAR-3, 31 µM (inactive).
`O=C1C=CC(=O)C(CNc2ccc(C(=O)OC34CC5CC(CC(C5)C3)C4)cc2)=C1Br`: the GI50 is 3.52 µM (inactive) in the test on CAKI-1; 15.9 µM (inactive) in the test with MCF7; 5.6 µM (inactive) in the test on RPMI-8226; 5.51 µM (inactive) in the test on OVCAR-8; 14.7 µM (inactive) in the test with MDA-MB-435; 15.6 µM (inactive) with MDA-N. In addition, the GI50 was 9.48 µM (inactive) in the test on LOX IMVI; 5.33 µM (inactive) in the test with BT-549; 4.98 µM (inactive) with RXF 393; 3.82 µM (inactive) with NCI/ADR-RES; 5.62 µM (inactive) in the test with KM12; 12.2 µM (inactive) with SF-268. Moreover, the GI50 was 7.38 µM (inactive) with UACC-62; 11.5 µM (inactive) with NCI-H460; 2.34 µM (inactive) with HOP-92; 15.4 µM (inactive) in the test with SK-MEL-2; 13.5 µM (inactive) with OVCAR-3.
For `COC(c1ccsc1)C(C#N)(C#N)/N=C/c1ccsc1` (stereo not given), the GI50 in the test with CAKI-1 was 4.68 µM (inactive); in the test with MCF7 it was 2.18 µM (inactive); in the test with SK-MEL-28, 18.6 µM (inactive); with OVCAR-8, 18.1 µM (inactive); in the test on MDA-MB-435, 15.5 µM (inactive); in the test on MDA-N, 16 µM (inactive). The GI50 is 10.3 µM (inactive) in the test with LOX IMVI; 17 µM (inactive) in the test on BT-549; 12.7 µM (inactive) with RXF 393; 17.7 µM (inactive) in the test with NCI/ADR-RES; 16.7 µM (inactive) with KM12; 16.1 µM (inactive) with SF-268. For the same molecule, the GI50 is 15.2 µM (inactive) with UACC-62; 18.4 µM (inactive) in the test with NCI-H460; 12 µM (inactive) in the test on HOP-92; 19 µM (inactive) in the test on SK-MEL-2; 12.6 µM (inactive) in the test with OVCAR-3.
For the molecule `Cc1ccc2c(=O)c(-c3n[nH]c(=S)s3)c[nH]c2n1`, the GI50 in the test with CAKI-1, in the test on MCF7, in the test on RPMI-8226, in the test with SK-MEL-28, in the test with OVCAR-8 and in the test with MDA-MB-435 was > 100 µM (inactive) each time. For the same molecule, the GI50 in the test with MDA-N, with LOX IMVI, in the test on BT-549, with RXF 393, with NCI/ADR-RES and in the test on KM12 was > 100 µM (inactive) in each case. The GI50 in the test on SF-268, in the test with UACC-62, with NCI-H460, in the test with SK-MEL-2 and with OVCAR-3 was > 100 µM (inactive) in each case.
Regarding `COc1cc2[nH]c(=O)c3cc(C)cc4c(Cl)nc(c1OC)c2c43`, the GI50 in the test on CAKI-1 was 56.2 µM (inactive); in the test on MCF7, 32.9 µM (inactive); with RPMI-8226 it was 34.9 µM (inactive); with SK-MEL-28, > 100 µM (inactive); in the test with OVCAR-8, 95.9 µM (inactive); with MDA-MB-435 it was 57.3 µM (inactive). Besides, the GI50 in the test on MDA-N was > 100 µM (inactive); with LOX IMVI, 53.2 µM (inactive); in the test with BT-549, 35 µM (inactive); with RXF 393 it was 21 µM (inactive); with NCI/ADR-RES it was > 100 µM (inactive); in the test on KM12, 96.6 µM (inactive). In addition, the GI50 with SF-268 is 20.4 µM (inactive); in the test with UACC-62 it was 28.3 µM (inactive); with NCI-H460, 23.4 µM (inactive); in the test with HOP-92, 35.9 µM (inactive); in the test on SK-MEL-2 it was 32.9 µM (inactive); in the test with OVCAR-3, > 100 µM (inactive).
As for `COC(=O)c1ccc(/N=N/N(C)COc2ccc(C#N)cc2)cc1`, the GI50 in the test with CAKI-1 is 69 µM (inactive); in the test on MCF7 it was > 100 µM (inactive); in the test with RPMI-8226 it was > 100 µM (inactive); in the test with SK-MEL-28, > 100 µM (inactive); with OVCAR-8, > 100 µM (inactive); in the test with MDA-MB-435, 40.4 µM (inactive). The GI50 was > 100 µM (inactive) in the test on MDA-N; 56.1 µM (inactive) with LOX IMVI; > 100 µM (inactive) in the test with BT-549; 95.5 µM (inactive) in the test on RXF 393; 67 µM (inactive) in the test on NCI/ADR-RES; 70.8 µM (inactive) in the test with KM12. The GI50 in the test on SF-268 is > 100 µM (inactive); in the test on NCI-H460, 18.2 µM (inactive); in the test on HOP-92 it was 34.4 µM (inactive); in the test with SK-MEL-2, > 100 µM (inactive); with OVCAR-3, > 100 µM (inactive).
As to `COc1ccc2c(c1)[nH]c1c3ccc(OC)cc3oc(=O)c21`, the GI50 was > 100 µM (inactive) in the test on CAKI-1; 5.73 µM (inactive) in the test with MCF7; 60.7 µM (inactive) in the test with RPMI-8226; > 100 µM (inactive) in the test with SK-MEL-28; > 100 µM (inactive) in the test with OVCAR-8; 0.91 µM (active) in the test on MDA-MB-435. The GI50 is 0.9 µM (active) in the test on MDA-N; > 100 µM (inactive) in the test on LOX IMVI; 57.3 µM (inactive) in the test with BT-549; > 100 µM (inactive) in the test with RXF 393; > 100 µM (inactive) in the test on NCI/ADR-RES; 19.8 µM (inactive) in the test with KM12. Further, the GI50 in the test with SF-268, with UACC-62, in the test with NCI-H460, in the test on HOP-92, with SK-MEL-2 and with OVCAR-3 was > 100 µM (inactive) each time.
For `COC1=Nc2ccccc2S(=O)(=O)C=C1`, the GI50 is 13.3 µM (inactive) in the test with CAKI-1; 2.61 µM (inactive) in the test on MCF7; 7.01 µM (inactive) in the test on SK-MEL-28; 4.35 µM (inactive) with OVCAR-8; 11.4 µM (inactive) with MDA-MB-435; 7.4 µM (inactive) in the test on MDA-N. Moreover, the GI50 with LOX IMVI was 2.84 µM (inactive); with BT-549 it was 6.75 µM (inactive); with RXF 393 it was 2.69 µM (inactive); with NCI/ADR-RES, 13.1 µM (inactive); in the test with KM12, 14.8 µM (inactive); with SF-268 it was 20.8 µM (inactive). Further, the GI50 with UACC-62 was 17.9 µM (inactive); in the test on NCI-H460 it was 19 µM (inactive); in the test on HOP-92 it was 4.81 µM (inactive); in the test with SK-MEL-2 it was 16.6 µM (inactive); in the test with OVCAR-3, 2.78 µM (inactive).
In the case of `O=C(O)c1ccccc1CC1Cc2cc3c(cc2C1)CCC3`, the GI50 in the test on MCF7 is > 100 µM (inactive); with RPMI-8226, 88.3 µM (inactive); in the test with SK-MEL-28, > 100 µM (inactive); in the test with OVCAR-8, > 100 µM (inactive); in the test with MDA-MB-435, > 100 µM (inactive); with MDA-N, > 100 µM (inactive). For the same molecule, the GI50 was > 100 µM (inactive) in the test on LOX IMVI; > 100 µM (inactive) with BT-549; 89.1 µM (inactive) with RXF 393; > 100 µM (inactive) in the test on NCI/ADR-RES; > 100 µM (inactive) with KM12; > 100 µM (inactive) in the test on SR. In addition, the GI50 is > 100 µM (inactive) with SF-268; 92.3 µM (inactive) with UACC-62; > 100 µM (inactive) in the test with NCI-H460; > 100 µM (inactive) in the test on SK-MEL-2; > 100 µM (inactive) in the test with OVCAR-3.
Consider `CC(C)(C)[Si](C)(C)OCCC1CC2(S(=O)(=O)C3=CC=C=C=C3)ON1CC2S(=O)(=O)c1ccccc1` (stereo not given), for which the GI50 with MCF7, with RPMI-8226, in the test with SK-MEL-28, in the test on OVCAR-8, in the test with MDA-MB-435 and in the test on MDA-N was > 10 µM (inactive) each time. Further, the GI50 with BT-549, in the test with RXF 393, in the test on NCI/ADR-RES, with KM12, with SF-268 and in the test on UACC-62 was > 10 µM (inactive) throughout. Besides, the GI50 in the test with NCI-H460, with SK-MEL-2 and in the test on OVCAR-3 was > 10 µM (inactive) each time.
